Laboratory results published in patent US20160324201A1, “SWEETENER COMPOSITION FOR ALLEVIATING DIABETES, CONTAINING SLOWLY DIGESTIBLE INGREDIENT” (CJ CHEILJEDANG CORPORATION, priority 2011, published 2016).

Columns and labels:
[1] = Changes in blood glucose after an identical meal and coffee containing the sweetener composition; format: in vivo, human; conditions: for Post-meal increase in blood glucose: result in words
Description: (1) Preparation of Test Specimen for Measuring Blood Glucose and Method of Intake
(§1) The sweetener composition intake was conducted by providing subjects with an identical meal and then allowing them to drink coffee containing the sweetener composition.
(2) Measurement of Changes in Blood Glucose Levels
(§2) In order to measure changes in blood glucose after the meal, blood glucose level before meal was checked, followed by providing the subjects with the meal and then coffee was given. Blood glucose was measured for 2 hours at intervals of 30 minutes.

[2] = Area under the curve of blood glucose (G-AUC) after meal and coffee containing the sweetener composition; format: in vivo, human
Description: as §1, §2

[3] = 0 min (before meal), normal subjects, five males and five females
[4] = 30 min after meal and coffee, * = p < 0.01 or less vs Comparative Example 1 (sugar)
[5] = 60 min after meal and coffee, * = p < 0.01 or less vs Comparative Example 1 (sugar)
[6] = 90 min after meal and coffee, * = p < 0.01 or less vs Comparative Example 1 (sugar)

SMILES | Blood glucose [1, 3] | Blood glucose [1, 4] | Blood glucose [1, 5] | Blood glucose [1, 6] | Blood glucose ([1]; 120 min after meal and coffee) | Post-meal increase in blood glucose [1] | G-AUC ([2]; to 30 min) | G-AUC ([2]; to 60 min) | G-AUC ([2]; to 90 min) | G-AUC ([2]; to 120 min)
OC[C@@H](O)[C@@H](O)CO [Comparative Example 2, Erythritol] | 92.8 mg/dL | 137.1 mg/dL | 121.6 mg/dL | 97.7 mg/dL | 97.2 mg/dL | increase in blood glucose due to the meal only | 3449 mg·min/dL | 7329 mg·min/dL | 10619 mg·min/dL | 13542 mg·min/dL
OC[C@H]1O[C@@](CO)(O[C@H]2O[C@H](CO)[C@@H](O)[C@H](O)[C@H]2O)[C@@H](O)[C@@H]1O [Comparative Example 1, Sugar] | 93.1 mg/dL | 139.1 mg/dL | 123.7 mg/dL | 98.5 mg/dL | 96.7 mg/dL | highest increase in blood glucose | 3483 mg·min/dL | 7425 mg·min/dL | 10758 mg·min/dL | 13686 mg·min/dL
O=C(CO)[C@H](O)[C@H](O)[C@H](O)CO [Comparative Example 3, D-psicose] | 92.4 mg/dL | 123.3 mg/dL | 114.5 mg/dL | 93.1 mg/dL | 94.1 mg/dL | lowering increase in blood glucose after the meal | 3236 mg·min/dL | 6803 mg·min/dL | 9917 mg·min/dL | 12725 mg·min/dL
